{"source": "ChEMBL document CHEMBL1201862", "about": "“PubChem BioAssay data set” (2004)", "key": {"SUMO-activating enzyme": {"biological_target": "SUMO-activating enzyme (Homo sapiens, UniProt Q9UBT2)", "sequence (Q9UBE0 whole entry)": "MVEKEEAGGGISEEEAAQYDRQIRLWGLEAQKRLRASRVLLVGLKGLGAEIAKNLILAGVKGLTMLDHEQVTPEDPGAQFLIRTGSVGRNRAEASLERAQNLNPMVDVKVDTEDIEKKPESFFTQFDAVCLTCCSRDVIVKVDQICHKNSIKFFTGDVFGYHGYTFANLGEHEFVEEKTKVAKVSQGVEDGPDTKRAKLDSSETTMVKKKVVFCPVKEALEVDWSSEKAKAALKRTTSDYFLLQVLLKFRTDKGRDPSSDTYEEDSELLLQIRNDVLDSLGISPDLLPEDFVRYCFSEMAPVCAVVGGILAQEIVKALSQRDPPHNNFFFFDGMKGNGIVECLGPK", "sequence (Q9UBT2 whole entry)": "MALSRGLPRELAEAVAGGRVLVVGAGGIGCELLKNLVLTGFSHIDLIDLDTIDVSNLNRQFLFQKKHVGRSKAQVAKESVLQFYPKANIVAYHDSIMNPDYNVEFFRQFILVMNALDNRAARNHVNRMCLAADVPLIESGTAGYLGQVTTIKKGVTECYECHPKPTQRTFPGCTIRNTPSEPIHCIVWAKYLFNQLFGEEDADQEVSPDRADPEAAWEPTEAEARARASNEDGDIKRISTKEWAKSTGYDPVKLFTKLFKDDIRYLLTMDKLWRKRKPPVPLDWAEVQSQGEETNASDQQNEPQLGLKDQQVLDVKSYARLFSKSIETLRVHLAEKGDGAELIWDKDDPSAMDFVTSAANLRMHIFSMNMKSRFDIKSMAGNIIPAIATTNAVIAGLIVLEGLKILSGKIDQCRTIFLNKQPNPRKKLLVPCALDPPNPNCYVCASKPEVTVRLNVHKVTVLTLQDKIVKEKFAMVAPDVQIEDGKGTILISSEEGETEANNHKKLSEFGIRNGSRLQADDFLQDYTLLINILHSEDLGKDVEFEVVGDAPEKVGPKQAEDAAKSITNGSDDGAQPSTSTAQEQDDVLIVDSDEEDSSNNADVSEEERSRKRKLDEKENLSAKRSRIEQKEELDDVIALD", "experiment": "SUMOylation inhibitor hit validation, confirmation, SUMOylation inhibitor project, biochemical, AlphaScreen (AID 2018)", "format": "functional"}, "Escherichia coli": {"test_system": "Escherichia coli", "experiment": "microbe, parasite or virus in culture"}, "[1]": {"experiment": "THP-1 cell cytotoxicity, dose response, cytotoxicity control for non-replicating M. tuberculosis project (AID 489025)", "format": "functional"}, "[2]": {"experiment": "HepG2 cell cytotoxicity, dose response, cytotoxicity control for Shn3 inhibitor project, CellTiter-Glo, cherry-picked (AID 624134)", "format": "functional, cell-based"}, "[3]": {"biological_target": "T1, Replicative DNA helicase DnaB (Mycobacterium tuberculosis, UniProt P9WMR3)", "T1 sequence (P9WMR3 whole entry)": "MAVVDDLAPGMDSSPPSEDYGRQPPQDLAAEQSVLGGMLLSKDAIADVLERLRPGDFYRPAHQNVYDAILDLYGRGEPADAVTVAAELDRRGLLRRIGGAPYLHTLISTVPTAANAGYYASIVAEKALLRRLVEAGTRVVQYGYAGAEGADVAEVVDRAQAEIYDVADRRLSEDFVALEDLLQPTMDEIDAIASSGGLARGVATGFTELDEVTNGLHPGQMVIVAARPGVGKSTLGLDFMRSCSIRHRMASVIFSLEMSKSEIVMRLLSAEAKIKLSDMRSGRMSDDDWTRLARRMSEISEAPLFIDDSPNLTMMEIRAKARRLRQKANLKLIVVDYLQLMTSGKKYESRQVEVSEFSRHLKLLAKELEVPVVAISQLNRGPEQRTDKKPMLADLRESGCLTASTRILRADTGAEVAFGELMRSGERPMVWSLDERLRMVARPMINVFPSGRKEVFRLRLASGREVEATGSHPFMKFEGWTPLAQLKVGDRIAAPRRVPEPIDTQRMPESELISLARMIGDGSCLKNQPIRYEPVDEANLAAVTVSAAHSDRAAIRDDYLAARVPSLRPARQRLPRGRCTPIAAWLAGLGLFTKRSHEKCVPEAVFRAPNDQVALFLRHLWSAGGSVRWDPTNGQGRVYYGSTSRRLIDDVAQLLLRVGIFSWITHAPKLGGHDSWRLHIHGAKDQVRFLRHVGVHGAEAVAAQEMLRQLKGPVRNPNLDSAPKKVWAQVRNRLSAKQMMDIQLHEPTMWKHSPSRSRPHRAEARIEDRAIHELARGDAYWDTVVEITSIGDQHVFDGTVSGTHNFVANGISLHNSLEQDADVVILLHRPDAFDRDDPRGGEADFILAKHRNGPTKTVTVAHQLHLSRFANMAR", "experiment": "DnaB intein splicing inhibitors, dose response, biochemical, cell-free fluorescence (AID 449749)", "format": "functional"}, "[4]": {"experiment": "microbe, parasite or virus in culture", "format": "functional", "conditions": "Mycobacterium tuberculosis"}, "[5]": {"experiment": "control 3'UTR Renilla luciferase suppression, dose response, counter-screen for Shn3 inhibitor project, cell-based, Clone20-Shn3RL, cherry-picked (AID 624133)", "format": "functional"}, "Protein RecA": {"biological_target": "T2, Protein RecA (Mycobacterium tuberculosis, UniProt P9WHJ3)", "T2 sequence (P9WHJ3 whole entry)": "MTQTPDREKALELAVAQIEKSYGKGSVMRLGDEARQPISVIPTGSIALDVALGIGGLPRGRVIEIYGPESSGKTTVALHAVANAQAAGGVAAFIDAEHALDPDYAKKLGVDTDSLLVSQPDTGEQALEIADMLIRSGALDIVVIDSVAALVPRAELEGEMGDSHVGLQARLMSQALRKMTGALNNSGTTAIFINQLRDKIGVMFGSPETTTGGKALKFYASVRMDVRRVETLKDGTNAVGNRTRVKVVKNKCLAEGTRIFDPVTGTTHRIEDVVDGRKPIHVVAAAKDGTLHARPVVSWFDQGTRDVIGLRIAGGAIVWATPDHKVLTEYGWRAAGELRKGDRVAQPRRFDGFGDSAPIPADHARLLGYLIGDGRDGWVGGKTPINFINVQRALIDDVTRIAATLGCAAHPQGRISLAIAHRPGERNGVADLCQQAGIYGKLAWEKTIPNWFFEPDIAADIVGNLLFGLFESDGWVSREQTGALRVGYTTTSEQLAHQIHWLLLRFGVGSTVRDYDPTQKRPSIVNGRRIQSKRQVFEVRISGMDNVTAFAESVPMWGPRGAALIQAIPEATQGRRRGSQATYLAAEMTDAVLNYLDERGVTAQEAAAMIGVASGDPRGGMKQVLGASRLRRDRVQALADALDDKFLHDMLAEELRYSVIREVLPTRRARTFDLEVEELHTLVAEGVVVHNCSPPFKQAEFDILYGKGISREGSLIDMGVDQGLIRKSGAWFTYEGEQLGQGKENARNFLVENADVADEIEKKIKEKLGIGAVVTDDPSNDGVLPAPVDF", "experiment": "Fluorescence Cell-Free Homogeneous Dose Retest to Identify Inhibitors of RecA-Intein Splicing Activity. [Related pubchem assays (depositor defined):AID2097, AID2223, AID489010, AID492950]", "format": "functional"}, "cells": {"experiment": "cells", "format": "functional"}, "[6]": {"experiment": "Shn3 3'UTR reporter inhibitors, dose response, cell-based, Clone20 osteoblasts, firefly luciferase, cherry-picked (AID 624132)", "format": "functional"}, "[7]": {"experiment": "Vero E6 cell cytotoxicity, dose response, cytotoxicity control for non-replicating M. tuberculosis project, secondary assay (AID 492998)", "format": "functional, VeroE6", "conditions": "Vero C1008"}, "CAAX prenyl protease 2": {"biological_target": "T3, CAAX prenyl protease 2 (Saccharomyces cerevisiae S288c, UniProt Q03530)", "T3 sequence (Q03530 whole entry)": "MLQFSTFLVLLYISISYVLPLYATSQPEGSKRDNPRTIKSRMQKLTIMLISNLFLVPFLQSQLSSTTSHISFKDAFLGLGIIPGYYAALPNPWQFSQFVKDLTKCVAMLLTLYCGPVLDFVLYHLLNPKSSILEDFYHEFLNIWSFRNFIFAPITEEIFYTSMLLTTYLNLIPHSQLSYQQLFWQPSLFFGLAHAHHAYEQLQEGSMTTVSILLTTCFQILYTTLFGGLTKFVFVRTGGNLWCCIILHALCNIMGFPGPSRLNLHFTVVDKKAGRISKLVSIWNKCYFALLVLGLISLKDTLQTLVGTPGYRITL", "format": "biochemical"}, "Coagulation factor XII": {"biological_target": "T4, Coagulation factor XII (Homo sapiens, UniProt P00748)", "T4 sequence (P00748 whole entry)": "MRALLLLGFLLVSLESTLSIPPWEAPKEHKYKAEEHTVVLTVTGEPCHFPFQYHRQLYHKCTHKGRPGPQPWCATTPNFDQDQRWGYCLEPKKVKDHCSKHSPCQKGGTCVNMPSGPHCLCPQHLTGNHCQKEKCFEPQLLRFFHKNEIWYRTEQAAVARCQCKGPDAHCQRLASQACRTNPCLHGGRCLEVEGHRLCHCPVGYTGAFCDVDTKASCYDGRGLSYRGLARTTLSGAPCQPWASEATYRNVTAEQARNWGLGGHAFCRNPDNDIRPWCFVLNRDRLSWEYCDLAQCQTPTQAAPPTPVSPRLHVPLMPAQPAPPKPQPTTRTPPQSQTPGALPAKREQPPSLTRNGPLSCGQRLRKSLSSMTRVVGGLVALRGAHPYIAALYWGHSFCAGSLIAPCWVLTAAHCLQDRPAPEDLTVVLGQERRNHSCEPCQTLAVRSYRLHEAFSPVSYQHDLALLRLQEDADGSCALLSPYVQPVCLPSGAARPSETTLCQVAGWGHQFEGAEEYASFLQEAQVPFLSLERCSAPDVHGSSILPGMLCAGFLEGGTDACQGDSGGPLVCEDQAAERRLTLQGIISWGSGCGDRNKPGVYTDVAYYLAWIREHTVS", "format": "functional"}, "[8]": {"biological_target": "T5, Heat shock factor protein 1 (Mus musculus, UniProt P38532)", "T5 sequence (P38532 whole entry)": "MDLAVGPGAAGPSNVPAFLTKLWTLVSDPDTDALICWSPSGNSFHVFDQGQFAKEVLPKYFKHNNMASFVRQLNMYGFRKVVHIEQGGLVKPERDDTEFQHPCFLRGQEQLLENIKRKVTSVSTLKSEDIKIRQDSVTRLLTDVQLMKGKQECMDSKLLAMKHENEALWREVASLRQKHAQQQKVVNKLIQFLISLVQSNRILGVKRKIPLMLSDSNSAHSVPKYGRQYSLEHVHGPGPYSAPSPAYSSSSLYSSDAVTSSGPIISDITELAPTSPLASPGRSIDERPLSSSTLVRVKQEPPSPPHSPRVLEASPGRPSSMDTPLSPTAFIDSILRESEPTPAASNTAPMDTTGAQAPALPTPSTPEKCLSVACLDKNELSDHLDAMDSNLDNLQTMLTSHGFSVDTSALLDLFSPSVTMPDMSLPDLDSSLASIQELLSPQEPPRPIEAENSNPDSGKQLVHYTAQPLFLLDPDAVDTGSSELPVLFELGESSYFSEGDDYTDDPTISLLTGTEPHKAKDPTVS", "experiment": "HSF1 potentiators in luciferase reporter cells, confirmation, cell-based, NIH3T3, luminescence, dose retest (AID 435004);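 further: stress induced by proteasome inhibitor MG132 added 30 min after compound; actives raise luminescence as potentiators of the MG132 stress response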", "format": "functional"}, "Vero [9]": {"test_system": "Vero", "experiment": "cells", "format": "functional", "conditions": "Chlorocebus sabaeus"}, "[10]": {"experiment": "Luminescence Cell-Based Dose Retest to Confirm Inhibitors of Cancer Stem Cells. [Related pubchem assays (depositor defined):AID2717, AID2721]", "format": "functional", "conditions": "Homo sapiens"}, "Vero [11]": {"test_system": "Vero", "experiment": "cells", "format": "functional, cell-based", "conditions": "Chlorocebus sabaeus"}, "INS1": {"test_system": "INS1", "experiment": "beta cell apoptosis inhibitors, cytokine rescue, dose response, luminescence, retest (AID 449756);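 further: cell death triggered by IL-1 beta plus TNF-alpha plus IFN-gamma mixture; protective hits raise ATP signal compared with cytokine alone wells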", "format": "functional, cell-based", "conditions": "Rattus norvegicus"}, "HEK293 [12]": {"test_system": "HEK293", "experiment": "cells", "conditions": "Homo sapiens"}, "HEK293 [13]": {"test_system": "HEK293", "experiment": "cells", "conditions": "Homo sapiens", "remark": "listed apart in the source"}, "[14]": {"biological_target": "Induced myeloid leukemia cell differentiation protein Mcl-1 (Homo sapiens, UniProt Q07820)", "sequence (Q07820 whole entry)": "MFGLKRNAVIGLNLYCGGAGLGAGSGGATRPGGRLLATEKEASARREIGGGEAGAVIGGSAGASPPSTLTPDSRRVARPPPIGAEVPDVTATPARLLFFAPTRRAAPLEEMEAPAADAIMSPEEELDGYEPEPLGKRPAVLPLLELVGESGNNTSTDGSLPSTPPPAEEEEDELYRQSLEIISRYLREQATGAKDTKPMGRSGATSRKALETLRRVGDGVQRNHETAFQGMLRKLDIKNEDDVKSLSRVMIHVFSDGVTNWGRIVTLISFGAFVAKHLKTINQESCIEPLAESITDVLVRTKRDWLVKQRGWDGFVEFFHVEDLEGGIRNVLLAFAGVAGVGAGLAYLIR", "format": "functional"}, "[15]": {"biological_target": "Eukaryotic translation initiation factor 4E (Mus musculus, UniProt P63073)", "sequence (P63073 whole entry)": "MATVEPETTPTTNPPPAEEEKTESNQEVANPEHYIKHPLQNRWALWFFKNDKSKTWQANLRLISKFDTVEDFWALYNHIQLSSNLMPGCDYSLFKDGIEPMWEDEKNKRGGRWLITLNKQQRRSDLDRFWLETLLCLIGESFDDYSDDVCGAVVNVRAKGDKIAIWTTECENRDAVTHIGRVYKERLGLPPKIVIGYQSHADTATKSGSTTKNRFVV", "experiment": "eIF4E–eIF4G protein interaction inhibitors, dose response, biochemical, TR-FRET (AID 855);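 further: potency for disrupting eIF4E binding to eIF4GI seen as loss of FRET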", "format": "functional"}}, "note": "Active and inactive are the calls of the source.", "data": [{"smiles": "COc1ccc(Cc2n[nH]c(=S)n2NC(=O)Nc2ccc(C)cc2)cc1", "values": [{"measurement": "IC50", "setting": "SUMO-activating enzyme", "value": "> 100 µM (inactive)"}]}, {"smiles": "Cn1c(=O)oc2cc(S(=O)(=O)NCCN3CCCCCC3)ccc21", "values": [{"measurement": "AC50", "setting": "Escherichia coli", "value": "24.2 µM (active)"}]}, {"smiles": "COC(=O)/C(=C1/Oc2cc(C)oc(=O)c2S1)C(F)(F)F", "values": [{"measurement": "CC50", "setting": "[1]", "value": "10.2 µM (active)"}, {"measurement": "AC50", "setting": "[2]", "value": "43 µM (active)"}, {"measurement": "AC50", "setting": "[3]", "value": "> 380 µM (inactive)"}, {"measurement": "CC50", "setting": "[4]", "value": "9.91 µM (active)"}, {"measurement": "AC50", "setting": "[5]", "value": "16.6 µM (active)"}, {"measurement": "EC50", "setting": "Protein RecA", "value": "3.74 µM (active)"}, {"measurement": "IC50", "setting": "cells", "value": "1.64 µM (active)"}, {"measurement": "AC50", "setting": "[6]", "value": "4.64 µM (active)"}, {"measurement": "CC50", "setting": "[7]", "value": "7.26 µM (active)"}]}, {"smiles": "Cc1ccc(-c2cc(C)nc3nc(N)nn23)cc1", "values": [{"measurement": "AC50", "setting": "CAAX prenyl protease 2", "value": "62.7 µM (active)"}]}, {"smiles": "Cc1ccc(C(=O)NCC(=O)OC(C)C(=O)Nc2ccc(N3CCOCC3)cc2)s1", "note": "(stereo not drawn)", "values": [{"measurement": "IC50", "setting": "Coagulation factor XII", "value": "> 50 µM (inactive)"}]}, {"smiles": "Sc1nnc(-c2cc(-c3ccccc3)[nH]n2)n1/N=C/C(Br)=C/c1ccccc1", "values": [{"measurement": "EC50", "setting": "[8]", "value": "2.65 µM (inconclusive)"}, {"measurement": "CC50", "setting": "Vero [9]", "value": "> 25 µM (active)"}, {"measurement": "AC50", "setting": "[10]", "value": "0.614 µM (active)"}, {"measurement": "IC50", "setting": "Vero [11]", "value": "6.87 µM (active)"}, {"measurement": "AC50", "setting": "INS1", "value": "9.04 µM (active)"}, {"measurement": "EC50", "setting": "HEK293 [12]", "value": "> 59.6 µM (inactive)"}, {"measurement": "EC50", "setting": "HEK293 [13]", "value": "> 59.6 µM (inactive)"}, {"measurement": "IC50", "setting": "[14]", "value": "4.97 µM (active)"}]}, {"smiles": "COc1cc(OC)c(/C=N/NC(=O)c2ccc(NC(C)=O)cc2)cc1Br", "values": [{"measurement": "IC50", "setting": "[15]", "value": "50 µM (inactive)"}, {"measurement": "IC50", "setting": "SUMO-activating enzyme", "value": "22.1 µM (active)"}]}]}
